# Measured values from ChEMBL document CHEMBL1131670, “N-hydroxyurea and hydroxamic acid inhibitors of cyclooxygenase and 5-lipoxygenase” (Bioorg Med Chem Lett, 1999).
# How the values were obtained:
# [1] = molecular target: T1, Polyunsaturated fatty acid 5-lipoxygenase (Rattus norvegicus) (UniProt P12527); assay: Inhibitory activity against 5-lipoxygenase (5-LO) using broken rat […] leukemia cells (RBL-1) at 10 uM; assay type: cell-based
# T1 sequence (whole entry): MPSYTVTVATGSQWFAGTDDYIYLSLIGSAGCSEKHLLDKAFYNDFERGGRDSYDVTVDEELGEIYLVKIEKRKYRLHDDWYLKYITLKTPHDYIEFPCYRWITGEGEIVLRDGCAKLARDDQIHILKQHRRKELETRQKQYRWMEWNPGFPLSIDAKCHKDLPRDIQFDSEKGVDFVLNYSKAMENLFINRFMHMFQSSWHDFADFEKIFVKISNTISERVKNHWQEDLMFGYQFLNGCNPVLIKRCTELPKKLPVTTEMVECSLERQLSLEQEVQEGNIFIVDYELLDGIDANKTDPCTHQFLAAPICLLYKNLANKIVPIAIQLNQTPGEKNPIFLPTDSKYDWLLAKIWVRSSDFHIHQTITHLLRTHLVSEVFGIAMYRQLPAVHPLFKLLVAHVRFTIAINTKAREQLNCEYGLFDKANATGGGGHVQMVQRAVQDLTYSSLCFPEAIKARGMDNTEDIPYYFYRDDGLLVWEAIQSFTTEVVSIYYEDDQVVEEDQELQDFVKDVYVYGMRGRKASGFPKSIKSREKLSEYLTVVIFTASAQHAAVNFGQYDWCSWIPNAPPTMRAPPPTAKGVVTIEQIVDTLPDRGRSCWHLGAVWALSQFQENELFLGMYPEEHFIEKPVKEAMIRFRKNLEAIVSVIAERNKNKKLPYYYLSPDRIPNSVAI
# [2] = molecular target: T2, Cyclooxygenase (Rattus norvegicus) (UniProt P35355+Q63921); assay: Inhibitory activity against Cyclooxygenase (COX) using broken rat […] leukemia cells (RBL-1) at 10 uM; assay type: cell-based
# [3] = molecular target: T3, Prostaglandin G/H synthase 1 (Ovis aries) (UniProt P05979); assay: Inhibitory activity against Cyclooxygenase using sheep seminal vesicle (SSV) enzyme (COX-1) Inhibition at 10 uM; assay type: tissue-based
# T3 sequence (whole entry): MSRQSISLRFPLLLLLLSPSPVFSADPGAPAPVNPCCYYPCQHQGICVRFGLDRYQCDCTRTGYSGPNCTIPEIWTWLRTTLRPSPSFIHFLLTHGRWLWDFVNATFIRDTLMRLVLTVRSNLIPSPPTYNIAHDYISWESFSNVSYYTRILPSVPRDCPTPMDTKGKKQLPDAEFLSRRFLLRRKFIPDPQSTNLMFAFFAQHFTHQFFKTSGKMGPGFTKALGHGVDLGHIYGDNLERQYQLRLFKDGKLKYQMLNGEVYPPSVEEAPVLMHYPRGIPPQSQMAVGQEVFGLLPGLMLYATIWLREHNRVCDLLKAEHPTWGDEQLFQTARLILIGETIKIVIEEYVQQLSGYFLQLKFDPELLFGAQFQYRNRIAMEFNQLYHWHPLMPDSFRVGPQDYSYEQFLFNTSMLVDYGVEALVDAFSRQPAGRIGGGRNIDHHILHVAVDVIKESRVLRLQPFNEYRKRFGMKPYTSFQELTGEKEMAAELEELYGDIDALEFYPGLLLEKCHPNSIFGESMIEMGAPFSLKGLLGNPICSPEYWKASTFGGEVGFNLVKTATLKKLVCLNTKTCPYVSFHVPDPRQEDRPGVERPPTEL
# [4] = molecular target: T4, Polyunsaturated fatty acid 5-lipoxygenase (Rattus norvegicus, UniProt P12527); assay: Inhibitory activity against 5-lipoxygenase (5-LO) using broken rat […] leukemia cells (RBL-1); assay type: cell-based
# T4 sequence (P12527 whole entry): T1 sequence (whole entry)
# Cyclooxygenase [5] = molecular target: T5, Cyclooxygenase (Rattus norvegicus, UniProt P35355+Q63921); assay: (§1) Inhibitory activity against Cyclooxygenase (COX) using broken rat […] leukemia cells (RBL-1); assay type: cell-based
# T5 sequence (P35355 whole entry): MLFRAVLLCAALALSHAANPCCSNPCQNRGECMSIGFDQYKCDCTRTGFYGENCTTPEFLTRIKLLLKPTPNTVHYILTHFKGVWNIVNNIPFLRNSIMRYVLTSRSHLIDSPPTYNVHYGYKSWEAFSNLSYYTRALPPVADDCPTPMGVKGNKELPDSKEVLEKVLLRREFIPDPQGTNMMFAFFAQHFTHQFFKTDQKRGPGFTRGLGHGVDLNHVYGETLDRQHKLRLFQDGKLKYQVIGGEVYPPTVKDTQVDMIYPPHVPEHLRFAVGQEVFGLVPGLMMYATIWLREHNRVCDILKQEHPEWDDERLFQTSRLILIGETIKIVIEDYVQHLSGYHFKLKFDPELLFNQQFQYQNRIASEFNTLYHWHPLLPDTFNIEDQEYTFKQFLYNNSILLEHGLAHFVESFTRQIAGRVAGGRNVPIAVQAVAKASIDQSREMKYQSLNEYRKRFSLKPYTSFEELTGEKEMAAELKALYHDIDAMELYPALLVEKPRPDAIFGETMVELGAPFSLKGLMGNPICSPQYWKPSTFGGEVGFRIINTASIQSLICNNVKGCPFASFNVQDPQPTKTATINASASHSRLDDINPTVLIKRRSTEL
# T5 sequence (Q63921 whole entry): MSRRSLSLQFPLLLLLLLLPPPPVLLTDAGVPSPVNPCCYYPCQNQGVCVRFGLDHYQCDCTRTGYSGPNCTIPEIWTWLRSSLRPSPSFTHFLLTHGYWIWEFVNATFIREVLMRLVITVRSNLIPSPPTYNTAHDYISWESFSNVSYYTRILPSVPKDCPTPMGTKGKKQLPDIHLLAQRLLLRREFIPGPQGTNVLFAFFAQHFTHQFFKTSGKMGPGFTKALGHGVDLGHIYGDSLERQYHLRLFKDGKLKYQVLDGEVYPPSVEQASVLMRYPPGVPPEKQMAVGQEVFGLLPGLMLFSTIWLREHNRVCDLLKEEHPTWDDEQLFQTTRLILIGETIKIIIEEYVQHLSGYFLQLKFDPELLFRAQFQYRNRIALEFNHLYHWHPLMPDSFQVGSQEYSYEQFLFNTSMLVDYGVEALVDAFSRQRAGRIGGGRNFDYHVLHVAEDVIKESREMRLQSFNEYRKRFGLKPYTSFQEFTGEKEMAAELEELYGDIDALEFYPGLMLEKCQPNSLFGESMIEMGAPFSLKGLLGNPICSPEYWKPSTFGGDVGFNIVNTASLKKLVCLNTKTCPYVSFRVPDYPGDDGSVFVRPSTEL
# Cyclooxygenase [6] = molecular target: T5, Cyclooxygenase; assay: Inhibitory activity against cyclooxygenase (COX) in intact rat […] leukemia cells (RBL-1); assay type: cell-based
# [7] = molecular target: T6, Polyunsaturated fatty acid 5-lipoxygenase (Homo sapiens) (UniProt P09917); assay: Inhibitory activity against 5-lipoxygenase (5-LO) in after oral administration of 5 mg/kg at 24 hr r to canine; assay type: organism-based; design: dose 5 mg/kg; details: Canis lupus familiaris; target entry is the homologue from another species; at 5 mg/kg
# T6 sequence (whole entry): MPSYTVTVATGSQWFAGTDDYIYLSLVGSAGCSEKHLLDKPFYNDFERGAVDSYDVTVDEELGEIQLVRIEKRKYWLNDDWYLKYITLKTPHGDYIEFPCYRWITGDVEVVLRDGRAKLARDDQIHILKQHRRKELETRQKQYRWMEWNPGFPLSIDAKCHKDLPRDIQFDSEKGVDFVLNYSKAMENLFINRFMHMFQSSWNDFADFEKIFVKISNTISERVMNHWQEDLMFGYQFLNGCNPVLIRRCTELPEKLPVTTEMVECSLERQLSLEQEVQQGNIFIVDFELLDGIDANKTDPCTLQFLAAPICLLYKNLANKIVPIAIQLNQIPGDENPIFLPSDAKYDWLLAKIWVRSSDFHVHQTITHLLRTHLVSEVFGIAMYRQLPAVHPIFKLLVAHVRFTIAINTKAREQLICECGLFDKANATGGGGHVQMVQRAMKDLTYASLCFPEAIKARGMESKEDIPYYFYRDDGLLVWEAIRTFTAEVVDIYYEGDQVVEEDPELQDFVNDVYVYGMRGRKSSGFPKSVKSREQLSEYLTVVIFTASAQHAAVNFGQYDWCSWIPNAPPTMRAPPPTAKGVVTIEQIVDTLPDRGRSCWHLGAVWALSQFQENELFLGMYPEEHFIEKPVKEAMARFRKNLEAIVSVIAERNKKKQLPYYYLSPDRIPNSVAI
# [8] = molecular target: T6, Polyunsaturated fatty acid 5-lipoxygenase (Homo sapiens); assay: Inhibitory activity against 5-lipoxygenase (5-LO) in after oral administration of 5 mg/kg at 2 hr to canine; assay type: organism-based; design: dose 5 mg/kg; details: Canis lupus familiaris; target entry is the homologue from another species; at 5 mg/kg
# [9] = molecular target: T6, Polyunsaturated fatty acid 5-lipoxygenase (Homo sapiens); assay: Inhibitory activity against 5-lipoxygenase (5-LO) in after oral administration of 5 mg/kg at 4 hr to canine; assay type: organism-based; design: dose 5 mg/kg; details: Canis lupus familiaris; target entry is the homologue from another species; at 5 mg/kg
# [10] = molecular target: T6, Polyunsaturated fatty acid 5-lipoxygenase (Homo sapiens); assay: Inhibitory activity against 5-lipoxygenase (5-LO) in after oral administration of 5 mg/kg at 8 hr to canine; assay type: organism-based; design: dose 5 mg/kg; details: Canis lupus familiaris; target entry is the homologue from another species; at 5 mg/kg
# [11] = molecular target: T7, Cyclooxygenase (Homo sapiens) (UniProt P35354+P23219); assay: Inhibitory activity against cyclooxygenase (COX) in after oral administration of 5 mg/kg at 24 hr r; assay type: organism-based; design: dose 5 mg/kg; details: Canis lupus familiaris; at 5 mg/kg
# [12] = molecular target: T7, Cyclooxygenase (Homo sapiens); assay: Inhibitory activity against cyclooxygenase (COX) in after oral administration of 5 mg/kg at 2 hr to canine; assay type: organism-based; design: dose 5 mg/kg; details: Canis lupus familiaris; target entry is the homologue from another species; at 5 mg/kg
# [13] = molecular target: T7, Cyclooxygenase (Homo sapiens); assay: Inhibitory activity against cyclooxygenase (COX) in after oral administration of 5 mg/kg at 4 hr to canine; assay type: organism-based; design: dose 5 mg/kg; details: Canis lupus familiaris; target entry is the homologue from another species; at 5 mg/kg
# [14] = molecular target: T7, Cyclooxygenase (Homo sapiens); assay: Inhibitory activity against cyclooxygenase (COX) in after oral administration of 5 mg/kg at 8 hr to canine; assay type: organism-based; design: dose 5 mg/kg; details: Canis lupus familiaris; target entry is the homologue from another species; at 5 mg/kg
# [15] = molecular target: T6, Polyunsaturated fatty acid 5-lipoxygenase (Homo sapiens); assay: Inhibitory activity against 5-lipoxygenase (5-LO) in after oral administration of 5 mg/kg at 24 hr r; assay type: organism-based; design: dose 5 mg/kg; details: Canis lupus familiaris; at 5 mg/kg
# [16] = molecular target: T6, Polyunsaturated fatty acid 5-lipoxygenase (Homo sapiens); assay: Inhibitory activity against 5-lipoxygenase (5-LO) in after oral administration of 5 mg/kg at 2 hr; assay type: organism-based; design: dose 5 mg/kg; details: Canis lupus familiaris; at 5 mg/kg
# [17] = molecular target: T6, Polyunsaturated fatty acid 5-lipoxygenase (Homo sapiens); assay: Inhibitory activity against 5-lipoxygenase (5-LO) in after oral administration of 5 mg/kg at 4 hr; assay type: organism-based; design: dose 5 mg/kg; details: Canis lupus familiaris; at 5 mg/kg
# [18] = molecular target: T6, Polyunsaturated fatty acid 5-lipoxygenase (Homo sapiens); assay: Inhibitory activity against 5-lipoxygenase (5-LO) in after oral administration of 5 mg/kg at 8 hr; assay type: organism-based; design: dose 5 mg/kg; details: Canis lupus familiaris; at 5 mg/kg
# [19] = molecular target: T7, Cyclooxygenase (Homo sapiens); assay: Inhibitory activity against cyclooxygenase (COX) in after oral administration of 5 mg/kg at 4 hr; assay type: organism-based; design: dose 5 mg/kg; details: Canis lupus familiaris; at 5 mg/kg
# [20] = molecular target: T7, Cyclooxygenase (Homo sapiens); assay: Inhibitory activity against cyclooxygenase (COX) in after oral administration of 5 mg/kg at 8 hr; assay type: organism-based; design: dose 5 mg/kg; details: Canis lupus familiaris; at 5 mg/kg
# [21] = molecular target: T2, Cyclooxygenase (Rattus norvegicus); assay: as §1; assay type: cell-based; details: concentration not given here
# [22] = molecular target: T3, Prostaglandin G/H synthase 1 (Ovis aries); assay: Inhibitory activity against Cyclooxygenase using sheep seminal vesicle (SSV) enzyme (COX-1) at 10 uM; assay type: tissue-based
# [23] = molecular target: T1, Polyunsaturated fatty acid 5-lipoxygenase (Rattus norvegicus); assay: Inhibitory activity against 5-lipoxygenase (5-LO) using broken rat […] leukemia cells (RBL-1)at 10 uM; assay type: cell-based
structure (smiles),measurement,setting,value
CNC(=O)N(O)C(C)C#Cc1cc(-c2ccc(Cl)cc2)n(-c2ccc(OC)cc2)n1 (stereo not drawn),inhibition,[1],79%
same,inhibition,[2],0%
same,inhibition,[3],5%
COc1ccc(-n2nc(CCC(=O)N(C)O)cc2-c2ccc(Cl)cc2)cc1 [TEPOXALIN],IC50,[4],1.7 µM
same,IC50,Cyclooxygenase [5],4.2 µM
same,IC50,Cyclooxygenase [6],2.85 µM
COc1ccc(-n2nc(C#CCN(O)C(N)=O)cc2-c2ccc(C)cc2)cc1,inhibition,[7],10%
same,inhibition,[8],53%
same,inhibition,[9],32%
same,inhibition,[10],15%
same,inhibition,[11],11%
same,inhibition,[12],82%
same,inhibition,[13],76%
same,inhibition,[14],46%
same,IC50,Cyclooxygenase [5],0.31 µM
same,IC50,Cyclooxygenase [6],12.1 µM
COc1ccc(-n2nc(C#CC(C)N(O)C(C)=O)cc2-c2ccc(Cl)cc2)cc1 (stereo not drawn),inhibition,[15],12%
same,inhibition,[16],34%
same,inhibition,[17],20%
same,inhibition,[18],31%
same,inhibition,[11],68%
same,inhibition,[12],92%
same,inhibition,[19],75%
same,inhibition,[20],62%
COc1ccc(-n2nc(C#CCN(O)C(C)=O)cc2-c2ccc(C)cc2)cc1,inhibition,[21],100%
same,inhibition,[22],74%
same,IC50,Cyclooxygenase [6],0.03 µM
same,inhibition,[23],100%
